Where a SMILES comes first, the peptide text is derived from it. Bridges are numbered along the chain shown (N, C = ends).
Legend:
rKV1.1 = assay: Two-electrode voltage-clamp, Xenopus oocytes expressing rKV1.1; assay type: cell-based, rat; settings: 1 μM toxin, TEVC, n ≥ 3
Protocol: (§1) For the expression of the VGPCs (rKV1.1, rKV1.2, hKV1.3, rKV1.4, rKV1.6, Shaker IR, rKV2.1) in Xenopus oocytes, the linearized plasmids were transcribed using the T7 or SP6 mMESSAGE-mMACHINE transcription kit (Ambion, USA). The harvesting of stage V-VI oocytes from anaesthetized female Xenopus laevis frog was previously described. Oocytes were injected with 50 nl of cRNA at a concentration of 1 ng/nl using a micro-injector (Drummond Scientific, USA). The oocytes were incubated in ND96 solution containing (in mM): NaCl, 96; KCl, 2; CaCl2, 1.8; MgCl2, 2 and HEPES, 5 (pH 7.4), supplemented with 50 mg/l gentamycin sulfate. The use of the frogs was in accordance with the license number LA1210239.
(§2) Two-electrode voltage-clamp recordings were performed at room temperature (18–22°C) using a Geneclamp 500 amplifier (Molecular Devices, USA) controlled by a pClamp data acquisition system (Axon Instruments, USA). Whole cell currents from oocytes were recorded 1–4 days after injection. Bath solution composition was ND96 (in mM): NaCl, 96; KCl, 2; CaCl2, 1.8; MgCl2, 2 and HEPES, 5 (pH 7.4). Voltage and current electrodes were filled with 3 M KCl. Resistances of both electrodes were kept between 0.7–1.5 MΩ. The elicited currents were filtered at 1 kHz and sampled at 500 Hz using a four-pole low-pass Bessel filter. Leak subtraction was performed using a-P/4 protocol. […]

rKV1.2 = assay: Two-electrode voltage-clamp, Xenopus oocytes expressing rKV1.2; assay type: cell-based, rat; settings: 1 μM toxin, TEVC, n ≥ 3
Protocol: as §1, §2

hKV1.3 = assay: Two-electrode voltage-clamp, Xenopus oocytes expressing hKV1.3; assay type: cell-based, human; settings: 1 μM toxin, TEVC, n ≥ 3
Protocol: as §1, §2

rKV1.4 = assay: Two-electrode voltage-clamp, Xenopus oocytes expressing rKV1.4; assay type: cell-based, rat; settings: 1 μM toxin, TEVC, n ≥ 3
Protocol: as §1, §2

rKV1.6 = biological target: T1, rKV1.6 (Rattus norvegicus, UniProt P17659); assay: Two-electrode voltage-clamp, Xenopus oocytes expressing rKV1.6; assay type: cell-based
T1 construct: expressed in transfected cells; host or cells: Xenopus laevis oocytes injected with cRNA
Protocol: as §1
Two-electrode voltage-clamp recordings were performed at room temperature (18–22°C) using a Geneclamp 500 amplifier (Molecular Devices, USA) controlled by a pClamp data acquisition system (Axon Instruments, USA). Whole cell currents from oocytes were recorded 1–4 days after injection. Bath solution composition was ND96 (in mM): NaCl, 96; KCl, 2; CaCl2, 1.8; MgCl2, 2 and HEPES, 5 (pH 7.4). Voltage and current electrodes were filled with 3 M KCl. Resistances of both electrodes were kept between 0.7–1.5 MΩ. The elicited currents were filtered at 1 kHz and sampled at 500 Hz using a four-pole low-pass Bessel filter. Leak subtraction was performed using a-P/4 protocol. KV1.1-KV1.6 and Shaker IR currents were evoked by 500 ms depolarizations to 0 mV followed by a 500 ms pulse to -50 mV, from a holding potential of -90 mV. In order to investigate the current-voltage relationship, current traces were evoked by 10 mV depolarization steps from a holding potential of -90 mV. All data represent at least 3 independent experiments (n ≥ 3) and are presented as mean ± standard error.

Shaker IR = assay: Two-electrode voltage-clamp, Xenopus oocytes expressing Shaker IR; assay type: cell-based, insect; settings: 1 μM toxin, TEVC, n ≥ 3
Protocol: as §1, §2

rKV2.1 = assay: Two-electrode voltage-clamp, Xenopus oocytes expressing rKV2.1; assay type: cell-based, rat; settings: 1 μM toxin, TEVC, n ≥ 3
Protocol: as §1, §2

C57/ Bl/6 mice = settings: literature value for comparison; cited from earlier work
Protocol: We injected increasing doses, from 0.8 to 25 ng, of Kbot21 to two sets of C57bL/6 mice containing each six individuals by i.c.v. The LD50 value corresponds to […] or 1μg/kg body weight which is 5 times to other LD50 values of some scorpion peptides, such as Maurotoxin, well characterized for their activity on potassium channels (LD50 = 100 ng).

T1 sequence (P17659 whole entry): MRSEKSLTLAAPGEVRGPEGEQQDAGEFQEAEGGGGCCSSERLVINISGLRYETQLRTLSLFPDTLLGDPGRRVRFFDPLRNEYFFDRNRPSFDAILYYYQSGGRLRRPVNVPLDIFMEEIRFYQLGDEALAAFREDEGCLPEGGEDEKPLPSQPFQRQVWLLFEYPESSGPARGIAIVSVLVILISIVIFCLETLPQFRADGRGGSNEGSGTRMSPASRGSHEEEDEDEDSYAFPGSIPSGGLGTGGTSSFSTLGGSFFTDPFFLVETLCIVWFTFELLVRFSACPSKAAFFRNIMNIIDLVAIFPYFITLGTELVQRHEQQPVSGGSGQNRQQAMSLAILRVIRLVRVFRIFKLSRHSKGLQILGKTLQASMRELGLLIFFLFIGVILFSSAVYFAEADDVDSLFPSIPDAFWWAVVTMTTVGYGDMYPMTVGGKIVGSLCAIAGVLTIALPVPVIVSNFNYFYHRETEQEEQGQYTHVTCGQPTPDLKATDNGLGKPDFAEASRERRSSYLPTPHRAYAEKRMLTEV

| Compound | Inhibition of potassium current (rKV1.1) | Inhibition of potassium current (rKV1.2) | Inhibition of potassium current (hKV1.3) | Inhibition of potassium current (rKV1.4) | Reversibility of Kv1.6 block upon washout (rKV1.6; 500 nM toxin, current recovered quickly and completely upon washout, n = 3) | Inhibition of potassium current (rKV1.6; 1 μM toxin, Xenopus oocytes, TEVC, n ≥ 3) | V1/2 (midpoint of activation) (rKV1.6; after application of 100 nM Kbot21, control 8.5 ± 0.9 mV, n ≥ 3, mean ± standard error, SEM) [mV] | Hill coefficient (rKV1.6; concentration-response curve on Kv1.6, mean ± standard error, n ≥ 3, SEM) | Inhibition of Shaker IR current (Shaker IR) [%] | Inhibition of potassium current (rKV2.1) | LD50 (C57/ Bl/6 mice) [ng] |
| --- | --- | --- | --- | --- | --- | --- | --- | --- | --- | --- | --- |
| CC[C@H](C)[C@@H]1NC(=O)[C@@H]2CSSC[C@H](NC(=O)[C@H](C)NC(=O)[C@H](C)N)C(=O)N[C@@H](Cc3ccc(O)cc3)C(=O)N[C@@H](CO)C(=O)N[C@@H](CO)C(=O)N[C@@H](CC(=O)O)C(=O)N[C@H]3CSSC[C@H](NC(=O)[C@H](CCCCN)NC(=O)[C@H](CO)NC(=O)[C@H](CC(=O)O)NC1=O)C(=O)N[C@@H](CCCCN)C(=O)N[C@H](C(=O)N[C@@H](Cc1ccc(O)cc1)C(=O)N[C@@H](CCCCN)C(=O)O)CSSC[C@H](NC(=O)[C@H](CCCCN)NC(=O)[C@H](C(C)C)NC(=O)[C@H](CCCNC(=N)N)NC3=O)C(=O)N[C@@H](CCCNC(=N)N)C(=O)N[C@@H](C)C(=O)N[C@@H](CCSC)C(=O)NCC(=O)N[C@@H](Cc1ccccc1)C(=O)N[C@@H](CO)C(=O)N[C@@H](CO)C(=O)NCC(=O)N[C@@H](CCCCN)C(=O)N2 [Kbot21] (H-AACYSSDCRVKCRAMGFSSGKCIDSKCKCYK-OH; disulfide 3-22, 8-27, 12-29 (inferred); N-terminus and C-terminus assumed) | completely inhibited | completely inhibited | completely inhibited | failed to exert any activity | reversible | completely inhibited | 6.9 ± 2.9 | 1.1 ± 0.1 | 65 | failed to exert any activity |  |
| Maurotoxin: scorpion peptide well characterized for activity on potassium channels (VSCTGSKDCYAPCRKQTGCPNAKCINKSCKCYGC; UniProt P80719 1-34, looked up) |  |  |  |  |  |  |  |  |  |  | 100 |
